Assay results reported in US20250163104A1, “MACROCYCLIC IMMUNOMODULATORS” (priority 2021, published 2025).
Where a SMILES comes first, the peptide text is derived from it. Bridges are numbered along the chain shown (N, C = ends). [ ]: non-standard residue; d: D form. The star is where a group is joined. Phe(4-COOH) = N[C@@H](Cc1ccc(C(=O)O)cc1)C(=O)O; Bip = N[C@@H](Cc1ccc(-c2ccccc2)cc1)C(=O)O; Phe(4-CN) = N#Cc1ccc(C[C@H](N)C(=O)O)cc1; Phe(4-F) = N[C@@H](Cc1ccc(F)cc1)C(=O)O; Gly(cPent) = N[C@H](C(=O)O)C1CCCC1; Cha = N[C@@H](CC1CCCCC1)C(=O)O; Cit = NC(=O)NCCC[C@H](N)C(=O)O; Gly(cPr) = N[C@H](C(=O)O)C1CC1; Carboxymethyl = O=C(O)C*; Orn = NCCC[C@H](N)C(=O)O; Dab = NCC[C@H](N)C(=O)O; Dap = NC[C@H](N)C(=O)O

These molecules were tested against T1, human PD-1 / PD-L1-Ig binding on Jurkat cell line over-expressing human PD-1 (Jurkat-PD-1) (Homo sapiens, UniProt Q15116) (assay: Jurkat-PD-1 Cell Binding High-Content Screening Assay (CBA)). Conditions: Jurkat HPD1_PDL1 IC50, Jurkat-PD-1 cells, PE-labeled PD-L1-Ig 20 nM final.
T1 construct: expressed in transfected cells; host or cells: Jurkat
Format: cell-based
In short: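 Compounds were preincubated with Jurkat-hPD-1 cells in DMEM plus 10% fetal calf serum for 2 h at 37° C. Phycoerythrin-labeled PD-L1-Ig (20 nM final) was then added for 1 hour. Cells were fixed in 4% paraformaldehyde with Hoechst 33342, and bound fluorescence was quantified by high-content imaging.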

T1 sequence (Q15116 25-288): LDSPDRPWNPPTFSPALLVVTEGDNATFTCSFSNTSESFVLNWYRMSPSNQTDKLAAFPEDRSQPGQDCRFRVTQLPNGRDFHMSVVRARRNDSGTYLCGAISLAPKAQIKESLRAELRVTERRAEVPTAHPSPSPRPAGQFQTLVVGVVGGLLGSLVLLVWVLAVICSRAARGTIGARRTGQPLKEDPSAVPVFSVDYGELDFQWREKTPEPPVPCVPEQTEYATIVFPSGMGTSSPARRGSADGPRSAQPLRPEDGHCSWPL

| Structure (SMILES) | IC50 [nM] |
| --- | --- |
| CC(C)C[C@H]1NC(=O)[C@H](CCCN)NC(=O)[C@H](CN)NC(=O)[C@H](Cc2ccc(-c3ccccc3)cc2)NC(=O)[C@H](C(C)C)NC(=O)[C@H](Cc2c[nH]c3ccccc23)NC(=O)[C@H](CC(=O)O)NC(=O)[C@H](Cc2ccc(OCC(=O)O)cc2)NC(=O)[C@H](Cc2ccncc2)NC(=O)CSC[C@@H](C(=O)N[C@@H](C)C(N)=O)NC(=O)[C@H]([C@@H](C)O)NC(=O)[C@H](C(C)C)NC(=O)[C@H](CC2CCCCC2)NC(=O)[C@H](CCN)NC1=O [Compound 1372] | 12.6 |
| CC(C)C[C@H]1NC(=O)[C@H](CCCN)NC(=O)[C@H](CCCCN)NC(=O)[C@H](Cc2ccc(-c3ccccc3)cc2)NC(=O)[C@H](C(C)C)NC(=O)[C@H](Cc2c[nH]c3ccccc23)NC(=O)[C@H](CC(=O)O)NC(=O)[C@H](Cc2ccc(OCC(=O)O)cc2)NC(=O)[C@H](Cc2ccncc2)NC(=O)CSC[C@@H](C(=O)N[C@@H](C)C(N)=O)NC(=O)[C@H]([C@@H](C)O)NC(=O)[C@H](C(C)C)NC(=O)[C@H](CC2CCCCC2)NC(=O)[C@H](CCN)NC1=O [Compound 1373] | 11.1 |

Same assay, conditions: Jurkat-PD-1 cells, PE-labeled PD-L1-Ig 20 nM final; read-out: Jurkat HPD1_PDL1 IC50

| IC50 [nM] | Structure (SMILES) |
| --- | --- |
| 858 | CC(C)C[C@H]1NC(=O)[C@H](CCCN)NC(=O)[C@H](CCCNC(N)=O)NC(=O)[C@H](Cc2ccc(-c3ccccc3)cc2)NC(=O)[C@H](C(C)C)NC(=O)[C@H](Cc2c[nH]c3ccccc23)NC(=O)[C@H](CC(=O)O)NC(=O)[C@H](Cc2ccc(OCC(=O)O)cc2)NC(=O)[C@H](CN)NC(=O)CSC[C@@H](C(=O)N[C@@H](C)C(N)=O)NC(=O)[C@H]([C@@H](C)O)NC(=O)[C@H](C(C)C)NC(=O)[C@H](Cc2ccc(C#N)cc2)NC(=O)[C@H](CCN)NC1=O [Compound 1366] ({CH2CO}-[Dap]Y(Carboxymethyl)DWV[Bip][Cit][Orn][dL][Dab][Phe(4-CN)]VTCA-NH2; thioether N-14) |
| 21.7 | CC(C)C[C@H]1NC(=O)[C@H](CCCN)NC(=O)[C@H](CCCNC(N)=O)NC(=O)[C@H](Cc2ccc(-c3ccccc3)cc2)NC(=O)[C@H](C(C)C)NC(=O)[C@H](Cc2c[nH]c3ccccc23)NC(=O)[C@H](CC(=O)O)NC(=O)[C@H](Cc2ccc(OCC(=O)O)cc2)NC(=O)[C@H](CN)NC(=O)CSC[C@@H](C(=O)N[C@@H](C)C(N)=O)NC(=O)[C@H]([C@@H](C)O)NC(=O)[C@H](C(C)C)NC(=O)[C@H](Cc2ccc(F)cc2)NC(=O)[C@H](CCN)NC1=O [Compound 1367] ({CH2CO}-[Dap]Y(Carboxymethyl)DWV[Bip][Cit][Orn][dL][Dab][Phe(4-F)]VTCA-NH2; thioether N-14) |
| 7.1 | CC(C)C[C@H]1NC(=O)[C@H](CCCN)NC(=O)[C@H](CCCNC(N)=O)NC(=O)[C@H](Cc2ccc(-c3ccccc3)cc2)NC(=O)[C@H](C2CCCC2)NC(=O)[C@H](Cc2c[nH]c3ccccc23)NC(=O)[C@H](CC(=O)O)NC(=O)[C@H](Cc2ccc(OCC(=O)O)cc2)NC(=O)[C@H](CN)NC(=O)CSC[C@@H](C(=O)N[C@@H](C)C(N)=O)NC(=O)[C@H]([C@@H](C)O)NC(=O)[C@H](C(C)C)NC(=O)[C@H](CC2CCCCC2)NC(=O)[C@H](CCN)NC1=O [Compound 1368] ({CH2CO}-[Dap]Y(Carboxymethyl)DW[Gly(cPent)][Bip][Cit][Orn][dL][Dab][Cha]VTCA-NH2; thioether N-14) |
| 19.9 | CC(C)C[C@H]1NC(=O)[C@H](CCCN)NC(=O)[C@H](CCCNC(N)=O)NC(=O)[C@H](Cc2ccc(-c3ccccc3)cc2)NC(=O)[C@H](C2CC2)NC(=O)[C@H](Cc2c[nH]c3ccccc23)NC(=O)[C@H](CC(=O)O)NC(=O)[C@H](Cc2ccc(OCC(=O)O)cc2)NC(=O)[C@H](CN)NC(=O)CSC[C@@H](C(=O)N[C@@H](C)C(N)=O)NC(=O)[C@H]([C@@H](C)O)NC(=O)[C@H](C(C)C)NC(=O)[C@H](CC2CCCCC2)NC(=O)[C@H](CCN)NC1=O [Compound 1369] ({CH2CO}-[Dap]Y(Carboxymethyl)DW[Gly(cPr)][Bip][Cit][Orn][dL][Dab][Cha]VTCA-NH2; thioether N-14) |
| 6.4 | CC[C@H](C)[C@@H]1NC(=O)[C@H](Cc2ccc(-c3ccccc3)cc2)NC(=O)[C@H](CC(C)C)NC(=O)[C@H](Cc2c[nH]c3ccccc23)NC(=O)[C@H](CC(=O)O)NC(=O)[C@H](Cc2ccc(OCC(=O)O)cc2)NC(=O)[C@H](CN)NC(=O)CSC[C@@H](C(=O)N[C@@H](C)C(N)=O)NC(=O)[C@H]([C@@H](C)O)NC(=O)[C@H](C(C)C)NC(=O)[C@H](CC(C)C)NC(=O)[C@H](CCN)NC(=O)[C@@H](CC(C)C)NC(=O)[C@H](CCCN)NC1=O [Compound 1370] ({CH2CO}-[Dap]Y(Carboxymethyl)DWL[Bip]I[Orn][dL][Dab]LVTCA-NH2; thioether N-14) |
| 9.8 | CC(C)C[C@H]1NC(=O)[C@H](CCCN)NC(=O)[C@H](CCCN)NC(=O)[C@H](Cc2ccc(-c3ccccc3)cc2)NC(=O)[C@H](C(C)C)NC(=O)[C@H](Cc2c[nH]c3ccccc23)NC(=O)[C@H](CC(=O)O)NC(=O)[C@H](Cc2ccc(OCC(=O)O)cc2)NC(=O)[C@H](CN)NC(=O)CSC[C@@H](C(=O)N[C@@H](C)C(N)=O)NC(=O)[C@H]([C@@H](C)O)NC(=O)[C@H](C(C)C)NC(=O)[C@H](CC2CCCCC2)NC(=O)[C@H](CCN)NC1=O [Compound 1374] |
| 7.2 | CC(C)C[C@H]1NC(=O)[C@H](CCCN)NC(=O)[C@H](CN)NC(=O)[C@H](Cc2ccc(-c3ccccc3)cc2)NC(=O)[C@H](C(C)C)NC(=O)[C@H](Cc2c[nH]c3ccccc23)NC(=O)[C@H](CC(=O)O)NC(=O)[C@H](Cc2ccc(OCC(=O)O)cc2)NC(=O)[C@H](CN)NC(=O)CSC[C@@H](C(=O)N[C@@H](C)C(N)=O)NC(=O)[C@H]([C@@H](C)O)NC(=O)[C@H](C(C)C)NC(=O)[C@H](CC2CCCCC2)NC(=O)[C@H](CCN)NC1=O [Compound 1376] |
| 8.9 | CC(C)C[C@H]1NC(=O)[C@H](CCCN)NC(=O)[C@H](CCCCN)NC(=O)[C@H](Cc2ccc(-c3ccccc3)cc2)NC(=O)[C@H](C(C)C)NC(=O)[C@H](Cc2c[nH]c3ccccc23)NC(=O)[C@H](CC(=O)O)NC(=O)[C@H](Cc2ccc(OCC(=O)O)cc2)NC(=O)[C@H](CN)NC(=O)CSC[C@@H](C(=O)N[C@@H](C)C(N)=O)NC(=O)[C@H]([C@@H](C)O)NC(=O)[C@H](C(C)C)NC(=O)[C@H](CC2CCCCC2)NC(=O)[C@H](CCN)NC1=O [Compound 1377] ({CH2CO}-[Dap]Y(Carboxymethyl)DWV[Bip]K[Orn][dL][Dab][Cha]VTCA-NH2; thioether N-14) |
| 13.7 | CC(C)C[C@H]1NC(=O)[C@H](CCCN)NC(=O)[C@H](CCCN)NC(=O)[C@H](Cc2ccc(-c3ccccc3)cc2)NC(=O)[C@H](C(C)C)NC(=O)[C@H](Cc2c[nH]c3ccccc23)NC(=O)[C@H](CC(=O)O)NC(=O)[C@H](Cc2ccc(O)cc2)NC(=O)[C@H](CC(N)=O)NC(=O)CSC[C@@H](C(=O)N[C@@H](C)C(N)=O)NC(=O)[C@H]([C@@H](C)O)NC(=O)[C@H](C(C)C)NC(=O)[C@H](CC2CCCCC2)NC(=O)[C@H](CCN)NC1=O [Compound 1378] ({CH2CO}-NYDWV[Bip][Orn][Orn][dL][Dab][Cha]VTCA-NH2; thioether N-14) |
| 33 | CC(C)C[C@H]1NC(=O)[C@H](CCCN)NC(=O)[C@H](CCN)NC(=O)[C@H](Cc2ccc(-c3ccccc3)cc2)NC(=O)[C@H](C(C)C)NC(=O)[C@H](Cc2c[nH]c3ccccc23)NC(=O)[C@H](CC(=O)O)NC(=O)[C@H](Cc2ccc(O)cc2)NC(=O)[C@H](CC(N)=O)NC(=O)CSC[C@@H](C(=O)N[C@@H](C)C(N)=O)NC(=O)[C@H]([C@@H](C)O)NC(=O)[C@H](C(C)C)NC(=O)[C@H](CC2CCCCC2)NC(=O)[C@H](CCN)NC1=O [Compound 1379] |
| 16.8 | CC(C)C[C@H]1NC(=O)[C@H](CCCN)NC(=O)[C@H](CN)NC(=O)[C@H](Cc2ccc(-c3ccccc3)cc2)NC(=O)[C@H](C(C)C)NC(=O)[C@H](Cc2c[nH]c3ccccc23)NC(=O)[C@H](CC(=O)O)NC(=O)[C@H](Cc2ccc(O)cc2)NC(=O)[C@H](CC(N)=O)NC(=O)CSC[C@@H](C(=O)N[C@@H](C)C(N)=O)NC(=O)[C@H]([C@@H](C)O)NC(=O)[C@H](C(C)C)NC(=O)[C@H](CC2CCCCC2)NC(=O)[C@H](CCN)NC1=O [Compound 1380] |
| 13.3 | CC(C)C[C@H]1NC(=O)[C@H](CCCN)NC(=O)[C@H](CCCCN)NC(=O)[C@H](Cc2ccc(-c3ccccc3)cc2)NC(=O)[C@H](C(C)C)NC(=O)[C@H](Cc2c[nH]c3ccccc23)NC(=O)[C@H](CC(=O)O)NC(=O)[C@H](Cc2ccc(O)cc2)NC(=O)[C@H](CC(N)=O)NC(=O)CSC[C@@H](C(=O)N[C@@H](C)C(N)=O)NC(=O)[C@H]([C@@H](C)O)NC(=O)[C@H](C(C)C)NC(=O)[C@H](CC2CCCCC2)NC(=O)[C@H](CCN)NC1=O [Compound 1381] ({CH2CO}-NYDWV[Bip]K[Orn][dL][Dab][Cha]VTCA-NH2; thioether N-14) |
| 14 | CC(C)C[C@H]1NC(=O)[C@H](CCCN)NC(=O)[C@H](CCCN)NC(=O)[C@H](Cc2ccc(-c3ccccc3)cc2)NC(=O)[C@H](C(C)C)NC(=O)[C@H](Cc2c[nH]c3ccccc23)NC(=O)[C@H](CC(=O)O)NC(=O)[C@H](Cc2ccc(C(=O)O)cc2)NC(=O)[C@H](Cc2ccc(OCC(=O)O)cc2)NC(=O)CSC[C@@H](C(=O)N[C@@H](C)C(N)=O)NC(=O)[C@H]([C@@H](C)O)NC(=O)[C@H](C(C)C)NC(=O)[C@H](CC2CCCCC2)NC(=O)[C@H](CCN)NC1=O [Compound 1382] ({CH2CO}-Y(Carboxymethyl)[Phe(4-COOH)]DWV[Bip][Orn][Orn][dL][Dab][Cha]VTCA-NH2; thioether N-14) |
| 19.1 | CC(C)C[C@H]1NC(=O)[C@H](CCCN)NC(=O)[C@H](CCN)NC(=O)[C@H](Cc2ccc(-c3ccccc3)cc2)NC(=O)[C@H](C(C)C)NC(=O)[C@H](Cc2c[nH]c3ccccc23)NC(=O)[C@H](CC(=O)O)NC(=O)[C@H](Cc2ccc(C(=O)O)cc2)NC(=O)[C@H](Cc2ccc(OCC(=O)O)cc2)NC(=O)CSC[C@@H](C(=O)N[C@@H](C)C(N)=O)NC(=O)[C@H]([C@@H](C)O)NC(=O)[C@H](C(C)C)NC(=O)[C@H](CC2CCCCC2)NC(=O)[C@H](CCN)NC1=O [Compound 1383] |
